In PubChem BioAssay AID2060510 (Molecular Pharmacology Branch, DTP, NCI, 2025):

Tested on: 439559-082-T-J2-PDC spheroids viability
Assay: Anticancer human tumor 439559-082-T-J2-PDC patient-derived colon adenocarcinoma cell line growth inhibition [GQUAD]
Conditions: for IC50: curve of first compound; for viability, T/C: stronger effect = lower value
In short: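 Multi-cell-type spheroids of tumor cells with HUVEC and mesenchymal stem cells, treated with drug combinations. Concentrations descend in half-log steps from near clinical Cmax, or from 10 microM where Cmax is unknown; viability read-out.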

[1] = second compound 0.0316 µM, first compound 0.0316 µM
[2] = second compound 0.0316 µM, first compound 0.1 µM
[3] = second compound 0.0316 µM, first compound 0.316 µM
[4] = second compound 0.0316 µM, first compound 1 µM
[5] = second compound 0.0316 µM, first compound 3.16 µM
[6] = second compound 0.0316 µM, first compound 10 µM
[7] = second compound 0.1 µM, first compound 0.0316 µM
[8] = second compound 0.1 µM, first compound 0.1 µM
[9] = second compound 0.1 µM, first compound 0.316 µM
[10] = second compound 0.1 µM, first compound 1 µM
[11] = second compound 0.1 µM, first compound 3.16 µM
[12] = second compound 0.1 µM, first compound 10 µM
[13] = second compound 0.316 µM, first compound 0.0316 µM
[14] = second compound 0.316 µM, first compound 0.1 µM
[15] = second compound 0.316 µM, first compound 0.316 µM
[16] = second compound 0.316 µM, first compound 1 µM
[17] = second compound 0.316 µM, first compound 3.16 µM
[18] = second compound 0.316 µM, first compound 10 µM
[19] = second compound 1 µM, first compound 0.0316 µM
[20] = second compound 1 µM, first compound 0.1 µM
[21] = second compound 1 µM, first compound 0.316 µM
[22] = second compound 1 µM, first compound 1 µM
[23] = second compound 1 µM, first compound 3.16 µM
[24] = second compound 1 µM, first compound 10 µM
[25] = second compound 3.16 µM, first compound 0.0316 µM
[26] = second compound 3.16 µM, first compound 0.1 µM
[27] = second compound 3.16 µM, first compound 0.316 µM
[28] = second compound 3.16 µM, first compound 1 µM
[29] = second compound 3.16 µM, first compound 3.16 µM
[30] = second compound 3.16 µM, first compound 10 µM
[31] = second compound 10 µM, first compound 0.0316 µM
[32] = second compound 10 µM, first compound 0.1 µM
[33] = second compound 10 µM, first compound 0.316 µM
[34] = second compound 10 µM, first compound 1 µM
[35] = second compound 10 µM, first compound 3.16 µM
[36] = second compound 10 µM, first compound 10 µM
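Further: spheroids exposed to the agents for 7 days before readout.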
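Wherever viability, T/C is given: percent of luminescence signal in DMSO vehicle wells taken as 100% viability.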

CC(C)(O)C1CCC(Nc2ccc3ncc(-c4cccc(C(F)(F)F)c4)n3n2)CC1 (stereo not drawn) + Cc1cnc(CNC(=O)c2c(=O)c3ccc(N4CCCN(C)CC4)nc3n3c2sc2ccccc23)cn1
IC50 (second compound 0.0316 µM): 1680 nM
IC50 (second compound 0.1 µM): 1760 nM
IC50 (second compound 0.316 µM): 1460 nM
IC50 (second compound 1 µM): 1180 nM
IC50 (second compound 3.16 µM): 1020 nM
IC50 (second compound 10 µM): 418 nM
viability, T/C [1]: 95.8%
viability, T/C [2]: 96.9%
viability, T/C [3]: 102%
viability, T/C [4]: 77.2%
viability, T/C [5]: 14.2%
viability, T/C [6]: 19.1%
viability, T/C [7]: 94.4%
viability, T/C [8]: 91.4%
viability, T/C [9]: 98.1%
viability, T/C [10]: 78.8%
viability, T/C [11]: 19.9%
viability, T/C [12]: 9.57%
viability, T/C [13]: 84.9%
viability, T/C [14]: 86.8%
viability, T/C [15]: 71.3%
viability, T/C [16]: 67%
viability, T/C [17]: 15.5%
viability, T/C [18]: 14.1%
viability, T/C [19]: 84.5%
viability, T/C [20]: 72.5%
viability, T/C [21]: 74.5%
viability, T/C [22]: 56.2%
viability, T/C [23]: 11.7%
viability, T/C [24]: 12.7%
viability, T/C [25]: 72.4%
viability, T/C [26]: 72.3%
viability, T/C [27]: 61%
viability, T/C [28]: 51.2%
viability, T/C [29]: 0.28%
viability, T/C [30]: 0.21%
viability, T/C [31]: 63.3%
viability, T/C [32]: 56.9%
viability, T/C [33]: 57.8%
viability, T/C [34]: 25.3%
viability, T/C [35]: 0.24%
viability, T/C [36]: 0.26%

CC1COCCN1c1cc(C2(S(C)(=N)=O)CC2)nc(-c2ccnc3[nH]ccc23)n1 (stereo not drawn) + Cc1[nH]c2ccc(F)cc2c1-c1nc2c3cccnc3c3ncccc3c2[nH]1
IC50 (second compound 0.0316 µM): > 10000 nM
IC50 (second compound 0.1 µM): > 10000 nM
IC50 (second compound 0.316 µM): > 10000 nM
IC50 (second compound 1 µM): > 10000 nM
IC50 (second compound 3.16 µM): > 10000 nM
IC50 (second compound 10 µM): > 10000 nM
viability, T/C [1]: 100%
viability, T/C [2]: 92.5%
viability, T/C [3]: 103%
viability, T/C [4]: 106%
viability, T/C [5]: 96.7%
viability, T/C [6]: 76.8%
viability, T/C [7]: 109%
viability, T/C [8]: 104%
viability, T/C [9]: 90.9%
viability, T/C [10]: 102%
viability, T/C [11]: 93.9%
viability, T/C [12]: 75.8%
viability, T/C [13]: 88.1%
viability, T/C [14]: 105%
viability, T/C [15]: 99.6%
viability, T/C [16]: 104%
viability, T/C [17]: 98.5%
viability, T/C [18]: 71.3%
viability, T/C [19]: 99.9%
viability, T/C [20]: 86.8%
viability, T/C [21]: 100%
viability, T/C [22]: 90.5%
viability, T/C [23]: 91.8%
viability, T/C [24]: 68.5%
viability, T/C [25]: 87.5%
viability, T/C [26]: 94.2%
viability, T/C [27]: 80.8%
viability, T/C [28]: 77.4%
viability, T/C [29]: 83.5%
viability, T/C [30]: 63.1%
viability, T/C [31]: 88%
viability, T/C [32]: 87.8%
viability, T/C [33]: 80.8%
viability, T/C [34]: 74.4%
viability, T/C [35]: 80.6%
viability, T/C [36]: 64.3%

Cn1ncnc1[C@H]1c2n[nH]c(=O)c3cc(F)cc(c23)N[C@@H]1c1ccc(F)cc1 + Cc1cnc(CNC(=O)c2c(=O)c3ccc(N4CCCN(C)CC4)nc3n3c2sc2ccccc23)cn1
IC50 (second compound 0.0316 µM): > 316 nM
IC50 (second compound 0.1 µM): > 316 nM
IC50 (second compound 0.316 µM): > 316 nM
IC50 (second compound 1 µM): > 316 nM
IC50 (second compound 3.16 µM): > 316 nM
IC50 (second compound 10 µM): > 316 nM
viability, T/C (second compound 0.0316 µM, first compound 0.000999 µM): 96.2%
viability, T/C (second compound 0.0316 µM, first compound 0.00316 µM): 92%
viability, T/C (second compound 0.0316 µM, first compound 0.00999 µM): 102%
viability, T/C [1]: 99.7%
viability, T/C (second compound 0.0316 µM, first compound 0.0999 µM): 103%
viability, T/C [3]: 94.8%
viability, T/C (second compound 0.1 µM, first compound 0.000999 µM): 109%
viability, T/C (second compound 0.1 µM, first compound 0.00316 µM): 84.8%
viability, T/C (second compound 0.1 µM, first compound 0.00999 µM): 95.8%
viability, T/C [7]: 88%
viability, T/C (second compound 0.1 µM, first compound 0.0999 µM): 87.3%
viability, T/C [9]: 79.6%
viability, T/C (second compound 0.316 µM, first compound 0.000999 µM): 93.8%
viability, T/C (second compound 0.316 µM, first compound 0.00316 µM): 85.5%
viability, T/C (second compound 0.316 µM, first compound 0.00999 µM): 93%
viability, T/C [13]: 82.6%
viability, T/C (second compound 0.316 µM, first compound 0.0999 µM): 88.6%
viability, T/C [15]: 74.4%
viability, T/C (second compound 1 µM, first compound 0.000999 µM): 72.2%
viability, T/C (second compound 1 µM, first compound 0.00316 µM): 81.5%
viability, T/C (second compound 1 µM, first compound 0.00999 µM): 74.3%
viability, T/C [19]: 76%
viability, T/C (second compound 1 µM, first compound 0.0999 µM): 81.6%
viability, T/C [21]: 64.8%
viability, T/C (second compound 3.16 µM, first compound 0.000999 µM): 72.1%
viability, T/C (second compound 3.16 µM, first compound 0.00316 µM): 70.8%
viability, T/C (second compound 3.16 µM, first compound 0.00999 µM): 76.5%
viability, T/C [25]: 71%
viability, T/C (second compound 3.16 µM, first compound 0.0999 µM): 73.8%
viability, T/C [27]: 67.8%
viability, T/C (second compound 10 µM, first compound 0.000999 µM): 65%
viability, T/C (second compound 10 µM, first compound 0.00316 µM): 65%
viability, T/C (second compound 10 µM, first compound 0.00999 µM): 67.4%
viability, T/C [31]: 63.5%
viability, T/C (second compound 10 µM, first compound 0.0999 µM): 70.9%
viability, T/C [33]: 63.9%

O=C(NO)c1cnc(N2CCN(S(=O)(=O)c3ccc4ccccc4c3)CC2)nc1 + Cc1cnc(CNC(=O)c2c(=O)c3ccc(N4CCCN(C)CC4)nc3n3c2sc2ccccc23)cn1
IC50 (second compound 0.0316 µM): 546 nM
IC50 (second compound 0.1 µM): 447 nM
IC50 (second compound 0.316 µM): 450 nM
IC50 (second compound 1 µM): 353 nM
IC50 (second compound 3.16 µM): 380 nM
IC50 (second compound 10 µM): 263 nM
viability, T/C [1]: 90.2%
viability, T/C [2]: 88.9%
viability, T/C [3]: 68.9%
viability, T/C [4]: 29.1%
viability, T/C [5]: 0.23%
viability, T/C [6]: 0.25%
viability, T/C [7]: 93.5%
viability, T/C [8]: 85.8%
viability, T/C [9]: 67.2%
viability, T/C [10]: 10.9%
viability, T/C [11]: 0.24%
viability, T/C [12]: 0.21%
viability, T/C [13]: 98.1%
viability, T/C [14]: 83.4%
viability, T/C [15]: 66.7%
viability, T/C [16]: 15.7%
viability, T/C [17]: 0.18%
viability, T/C [18]: 0.24%
viability, T/C [19]: 77.9%
viability, T/C [20]: 73.2%
viability, T/C [21]: 53.9%
viability, T/C [22]: 15.3%
viability, T/C [23]: 0.16%
viability, T/C [24]: 0.14%
viability, T/C [25]: 72%
viability, T/C [26]: 64.5%
viability, T/C [27]: 58.1%
viability, T/C [28]: 8.79%
viability, T/C [29]: 0.12%
viability, T/C [30]: 0.18%
viability, T/C [31]: 62.7%
viability, T/C [32]: 62.8%
viability, T/C [33]: 47.6%
viability, T/C [34]: 0.23%
viability, T/C [35]: 0.17%
viability, T/C [36]: 0.18%
